Test [1] deals with Peroxisome proliferator-activated receptor gamma/Nuclear receptor coactivator 3 (Homo sapiens, UniProt P37231). In kind it is functional.
Test [2] concerns the target Peroxisome proliferator-activated receptor gamma/Nuclear receptor coactivator 2 (Homo sapiens, UniProt P37231). In kind it is functional.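 Note: agonist potency for raising coactivator recruitment to the receptor.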
The target in test [3] is Peroxisome proliferator-activated receptor gamma/Nuclear receptor coactivator 1 (Homo sapiens, UniProt P37231). In kind it is functional.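 Note: agonist potency as compounds enhance coactivator SRC-1 recruitment to PPARgamma.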
For another test, the target named is T1, Leucine aminopeptidase (Plasmodium falciparum 3D7, UniProt Q8IL11).
T1 sequence (Q8IL11 whole entry): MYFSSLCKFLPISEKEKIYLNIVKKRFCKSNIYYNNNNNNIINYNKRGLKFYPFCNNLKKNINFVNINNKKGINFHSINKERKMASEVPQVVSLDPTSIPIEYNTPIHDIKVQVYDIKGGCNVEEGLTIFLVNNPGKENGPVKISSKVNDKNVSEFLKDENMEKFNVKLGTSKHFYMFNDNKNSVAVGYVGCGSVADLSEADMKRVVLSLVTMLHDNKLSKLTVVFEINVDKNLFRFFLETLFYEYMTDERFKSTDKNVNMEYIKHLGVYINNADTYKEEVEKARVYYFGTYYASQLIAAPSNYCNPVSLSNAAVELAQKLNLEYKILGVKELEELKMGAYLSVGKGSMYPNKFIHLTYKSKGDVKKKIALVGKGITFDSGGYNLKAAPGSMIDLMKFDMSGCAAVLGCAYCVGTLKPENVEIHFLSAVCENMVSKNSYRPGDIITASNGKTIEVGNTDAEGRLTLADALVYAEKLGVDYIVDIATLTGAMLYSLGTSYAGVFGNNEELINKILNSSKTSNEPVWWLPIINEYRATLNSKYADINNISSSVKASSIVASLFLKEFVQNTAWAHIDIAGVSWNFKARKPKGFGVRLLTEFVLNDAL
In words: P. falciparum M17LAP inhibitors, primary screen, biochemical, fluorogenic H-Leu-NHMec substrate, 1536-well (AID 1619). In kind it is functional.

A short description of test [4]: cytotoxicity in HEK-293T cells, dose response, cytotoxicity control for TCR NF-kB inhibitor project, luminescence, T-cell screen hits (AID 489026).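 Note: cells exposed to compound about 14 hours before the viability readout.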 In kind it is functional, cell-based.
In another test the target is T2, Streptokinase A (Streptococcus pyogenes serotype M1, UniProt P10520).
T2 sequence (P10520 whole entry): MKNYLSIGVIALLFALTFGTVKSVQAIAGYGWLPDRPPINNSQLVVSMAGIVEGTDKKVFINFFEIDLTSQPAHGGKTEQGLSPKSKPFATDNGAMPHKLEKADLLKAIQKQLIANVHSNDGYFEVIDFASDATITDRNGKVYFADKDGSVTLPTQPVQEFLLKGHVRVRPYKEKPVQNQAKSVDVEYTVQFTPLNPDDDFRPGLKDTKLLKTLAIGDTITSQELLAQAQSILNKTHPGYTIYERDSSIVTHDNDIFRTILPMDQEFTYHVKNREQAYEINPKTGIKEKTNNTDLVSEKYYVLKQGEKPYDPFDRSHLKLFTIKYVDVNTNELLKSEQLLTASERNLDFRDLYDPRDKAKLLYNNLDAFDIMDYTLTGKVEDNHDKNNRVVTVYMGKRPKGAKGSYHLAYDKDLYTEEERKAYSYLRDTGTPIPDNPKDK
In words: S. pyogenes streptokinase expression inhibitors, potency, dose response, plasminogen activation absorbance, OD405 (AID 1914).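 Note: secreted streptokinase activity via plasminogen activation per viability signal from cell pellet.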 In kind it is functional, Streptococcus pyogenes M1 GAS.

The next test has as its system Streptococcus. The experiment in a line: Group A Streptococcus viability loss, dose response, counter-screen for streptokinase expression inhibitor project, luminescence, BacTiterGlo (AID 1915).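 Note: potency for reduction of bacterial viability or growth.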 In kind it is functional, organism-based.
Test [5] concerns Streptococcus sp. 'group A'. In words: growth inhibition of control SK(-) GAS strain, dose response, counter-screen for streptokinase expression inhibitor project, luminescence, kanamycin, BacTiterGlo, confirmation (AID 1900). In kind it is functional, organism-based. In general terms: Counterscreens check selectivity or assay interference.
Another test deals with Beta-galactosidase (Escherichia coli, UniProt Q8VNN2). In words: beta-galactosidase enzyme inhibitors and activators, dose response, artefact control for CCR6 antagonist project, biochemical, E. coli enzyme, set 3 (AID 504712). In kind it is functional.
The target in test [6] is T3, Short transient receptor potential channel 4 (Mus musculus, UniProt Q9QUQ5).
T3 sequence (Q9QUQ5 whole entry): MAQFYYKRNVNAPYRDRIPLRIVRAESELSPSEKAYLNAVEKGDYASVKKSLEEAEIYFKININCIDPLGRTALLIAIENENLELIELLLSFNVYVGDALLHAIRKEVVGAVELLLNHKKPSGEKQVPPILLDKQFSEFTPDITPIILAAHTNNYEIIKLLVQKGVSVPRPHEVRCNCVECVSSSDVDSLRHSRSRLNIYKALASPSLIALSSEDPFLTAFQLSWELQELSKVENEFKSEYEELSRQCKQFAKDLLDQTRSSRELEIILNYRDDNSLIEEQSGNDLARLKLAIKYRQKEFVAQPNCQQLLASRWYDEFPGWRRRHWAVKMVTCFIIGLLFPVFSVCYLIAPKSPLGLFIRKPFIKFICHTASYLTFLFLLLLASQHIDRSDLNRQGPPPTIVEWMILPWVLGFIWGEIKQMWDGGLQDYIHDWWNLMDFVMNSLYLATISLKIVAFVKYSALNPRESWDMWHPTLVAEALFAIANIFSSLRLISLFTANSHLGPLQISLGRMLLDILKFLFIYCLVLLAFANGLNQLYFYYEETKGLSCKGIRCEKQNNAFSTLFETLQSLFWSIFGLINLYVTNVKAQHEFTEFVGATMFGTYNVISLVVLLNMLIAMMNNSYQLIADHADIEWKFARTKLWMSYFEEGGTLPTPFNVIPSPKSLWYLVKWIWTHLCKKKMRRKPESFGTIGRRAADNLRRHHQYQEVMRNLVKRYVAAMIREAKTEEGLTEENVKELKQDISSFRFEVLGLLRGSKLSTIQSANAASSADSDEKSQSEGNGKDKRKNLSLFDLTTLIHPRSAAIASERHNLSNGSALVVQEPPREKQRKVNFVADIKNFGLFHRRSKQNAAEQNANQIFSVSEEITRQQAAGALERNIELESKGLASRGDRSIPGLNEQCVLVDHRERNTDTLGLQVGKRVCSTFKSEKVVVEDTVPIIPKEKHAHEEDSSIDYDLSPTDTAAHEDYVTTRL
The experiment in a line: mouse TRPC4 channel activators, dose response, cell-based, HEK293 TRPC4/mu-opioid, Fluo-4 calcium (AID 434937). In kind it is functional.

In a further test the target is T4, Aminopeptidase N (Plasmodium falciparum FcB1/Columbia, UniProt O96935).
T4 sequence (O96935 whole entry): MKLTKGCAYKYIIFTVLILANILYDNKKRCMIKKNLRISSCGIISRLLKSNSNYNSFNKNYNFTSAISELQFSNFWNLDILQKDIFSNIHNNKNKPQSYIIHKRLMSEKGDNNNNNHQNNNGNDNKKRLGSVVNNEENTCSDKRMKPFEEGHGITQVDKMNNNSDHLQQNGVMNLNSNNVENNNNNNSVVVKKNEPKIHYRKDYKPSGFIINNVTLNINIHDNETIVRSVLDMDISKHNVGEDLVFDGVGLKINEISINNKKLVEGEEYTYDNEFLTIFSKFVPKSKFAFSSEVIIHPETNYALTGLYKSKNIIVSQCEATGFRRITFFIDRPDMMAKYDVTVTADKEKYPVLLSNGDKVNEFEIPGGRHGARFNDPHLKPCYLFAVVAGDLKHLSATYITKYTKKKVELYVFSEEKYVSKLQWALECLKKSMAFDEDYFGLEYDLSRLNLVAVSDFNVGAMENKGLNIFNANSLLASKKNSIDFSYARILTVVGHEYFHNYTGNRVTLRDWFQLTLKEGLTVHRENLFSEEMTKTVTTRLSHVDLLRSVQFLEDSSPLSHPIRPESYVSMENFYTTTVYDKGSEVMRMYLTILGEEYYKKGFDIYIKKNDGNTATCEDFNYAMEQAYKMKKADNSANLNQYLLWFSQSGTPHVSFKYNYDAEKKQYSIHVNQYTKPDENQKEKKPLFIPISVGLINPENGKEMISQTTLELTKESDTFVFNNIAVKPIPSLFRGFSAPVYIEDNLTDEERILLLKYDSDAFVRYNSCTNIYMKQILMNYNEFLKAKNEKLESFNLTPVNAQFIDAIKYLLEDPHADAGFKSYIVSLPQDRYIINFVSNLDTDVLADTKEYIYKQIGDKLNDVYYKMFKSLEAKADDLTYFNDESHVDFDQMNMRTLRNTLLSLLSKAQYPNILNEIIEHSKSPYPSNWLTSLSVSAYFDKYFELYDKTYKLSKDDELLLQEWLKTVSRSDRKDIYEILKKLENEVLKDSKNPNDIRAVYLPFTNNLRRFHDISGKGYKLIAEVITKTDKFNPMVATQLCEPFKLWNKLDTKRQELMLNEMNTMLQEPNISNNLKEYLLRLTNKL
The experiment in a line: P. falciparum M1AAP inhibitors, biochemical, fluorogenic H-Leu-NHMec substrate, 1536-well (AID 1445). The arrangement: species or system Plasmodium falciparum 3D7, 3D7.

Test [7] has as its target Induced myeloid leukemia cell differentiation protein Mcl-1 (Homo sapiens, UniProt Q07820). In kind it is functional.
Test [8] can be described thus: Vero E6 cell cytotoxicity, dose response, cytotoxicity control for non-replicating M. tuberculosis project, secondary assay (AID 492998). The note with it: Vero C1008. In kind it is functional, VeroE6.
The next test in a line: cells. In kind it is functional.
Test [9] is described as follows: THP-1 cell cytotoxicity, dose response, cytotoxicity control for non-replicating M. tuberculosis project (AID 489025). In kind it is functional.
The test system of a further test is H4. In words: Luminescence Cell-Based Dose Response HTS to Identify Activators of 5'UTR Stem-Loop Driven Prion Protein mRNA Translation in H4 Neuroglioblastoma Cells. [Related pubchem assays: 1829 (Project Summary), 1814 (Primary HTS)]. In kind it is functional. Particulars: Homo sapiens.
A short description of test [10]: Luminescence Cell-Based Dose Response HTS to Identify Activators of Luciferase Translation or Activity in H4 […] Cells. [Related pubchem assays: 1829 (Project Summary), 1814 (Primary HTS)]. In kind it is functional.
Test [11] can be described thus: Luminescence Cell-Based Dose Confirmation HTS to Identify Activators of 5'UTR Stem-Loop Driven Alpha-Synuclein mRNA Translation in H4 Neuroglioblastoma Cells. [Related pubchem assays: 1829 (Project Summary), 1814 (Primary HTS)]. In kind it is functional.

Active and inactive are the calls of the source.

By EC50 is commonly meant the midpoint of the concentration-response curve. One may read the IC50 as the concentration that gives 50% inhibition. The term CC50 denotes the concentration at which the toxic effect on the cells reaches its halfway point.

Peroxisome proliferator-activated receptor gamma/Nuclear receptor coactivator 2, sequence (P37231 whole entry): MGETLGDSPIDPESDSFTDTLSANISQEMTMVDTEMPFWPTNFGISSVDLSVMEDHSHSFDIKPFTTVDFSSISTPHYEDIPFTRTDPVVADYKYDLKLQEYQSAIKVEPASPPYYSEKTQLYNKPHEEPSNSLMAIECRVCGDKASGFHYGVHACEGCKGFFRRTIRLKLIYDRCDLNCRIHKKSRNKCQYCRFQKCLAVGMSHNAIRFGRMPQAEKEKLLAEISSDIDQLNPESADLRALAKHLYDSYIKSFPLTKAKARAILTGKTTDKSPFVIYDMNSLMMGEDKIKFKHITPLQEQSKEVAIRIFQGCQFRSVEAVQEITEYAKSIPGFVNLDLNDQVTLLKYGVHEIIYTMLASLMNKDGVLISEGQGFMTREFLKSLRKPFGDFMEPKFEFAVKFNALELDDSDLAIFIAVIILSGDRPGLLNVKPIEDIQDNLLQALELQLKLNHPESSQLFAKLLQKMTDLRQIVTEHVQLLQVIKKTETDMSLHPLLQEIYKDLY
Peroxisome proliferator-activated receptor gamma/Nuclear receptor coactivator 2, sequence (Q15596 whole entry, further chain): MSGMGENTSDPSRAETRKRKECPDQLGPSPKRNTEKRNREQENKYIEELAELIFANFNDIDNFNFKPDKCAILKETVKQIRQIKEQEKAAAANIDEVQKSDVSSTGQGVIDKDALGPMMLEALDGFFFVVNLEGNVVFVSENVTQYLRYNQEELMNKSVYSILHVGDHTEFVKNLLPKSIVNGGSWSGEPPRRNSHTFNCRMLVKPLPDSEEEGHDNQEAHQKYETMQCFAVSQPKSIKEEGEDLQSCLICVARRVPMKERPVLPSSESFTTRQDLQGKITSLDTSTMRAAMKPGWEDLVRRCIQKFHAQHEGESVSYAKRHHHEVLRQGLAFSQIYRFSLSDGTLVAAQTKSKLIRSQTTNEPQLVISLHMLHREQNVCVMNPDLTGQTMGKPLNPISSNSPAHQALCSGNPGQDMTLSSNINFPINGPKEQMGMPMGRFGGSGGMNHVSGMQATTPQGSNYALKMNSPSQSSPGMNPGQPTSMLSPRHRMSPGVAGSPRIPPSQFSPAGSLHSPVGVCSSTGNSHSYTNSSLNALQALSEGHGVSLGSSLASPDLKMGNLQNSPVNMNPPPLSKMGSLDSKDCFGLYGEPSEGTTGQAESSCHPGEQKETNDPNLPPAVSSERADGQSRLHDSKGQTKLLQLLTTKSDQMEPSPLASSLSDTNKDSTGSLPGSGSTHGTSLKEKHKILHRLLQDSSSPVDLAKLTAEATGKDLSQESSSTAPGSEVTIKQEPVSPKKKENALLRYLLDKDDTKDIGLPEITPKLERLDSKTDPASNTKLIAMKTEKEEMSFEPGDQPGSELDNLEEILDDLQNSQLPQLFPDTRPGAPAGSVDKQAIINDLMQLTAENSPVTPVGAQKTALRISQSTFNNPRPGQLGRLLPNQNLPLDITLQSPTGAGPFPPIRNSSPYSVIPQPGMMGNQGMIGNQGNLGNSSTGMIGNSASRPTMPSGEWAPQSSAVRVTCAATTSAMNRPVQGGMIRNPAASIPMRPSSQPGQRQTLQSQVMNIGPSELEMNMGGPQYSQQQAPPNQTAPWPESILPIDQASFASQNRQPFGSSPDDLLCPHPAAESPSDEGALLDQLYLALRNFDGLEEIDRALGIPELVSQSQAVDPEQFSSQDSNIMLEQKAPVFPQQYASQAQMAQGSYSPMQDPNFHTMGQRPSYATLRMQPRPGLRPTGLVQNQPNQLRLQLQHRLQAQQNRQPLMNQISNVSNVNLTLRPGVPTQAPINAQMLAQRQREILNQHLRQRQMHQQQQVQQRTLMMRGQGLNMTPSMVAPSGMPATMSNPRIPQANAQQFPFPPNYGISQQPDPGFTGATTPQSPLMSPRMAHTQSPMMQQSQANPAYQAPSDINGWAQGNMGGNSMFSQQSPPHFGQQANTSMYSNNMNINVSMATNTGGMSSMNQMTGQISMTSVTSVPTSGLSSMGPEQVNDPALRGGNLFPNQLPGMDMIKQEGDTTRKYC
Peroxisome proliferator-activated receptor gamma/Nuclear receptor coactivator 1, sequence (P37231 whole entry): as the sequence (P37231 whole entry) above
Peroxisome proliferator-activated receptor gamma/Nuclear receptor coactivator 1, sequence (Q15788 whole entry, further chain): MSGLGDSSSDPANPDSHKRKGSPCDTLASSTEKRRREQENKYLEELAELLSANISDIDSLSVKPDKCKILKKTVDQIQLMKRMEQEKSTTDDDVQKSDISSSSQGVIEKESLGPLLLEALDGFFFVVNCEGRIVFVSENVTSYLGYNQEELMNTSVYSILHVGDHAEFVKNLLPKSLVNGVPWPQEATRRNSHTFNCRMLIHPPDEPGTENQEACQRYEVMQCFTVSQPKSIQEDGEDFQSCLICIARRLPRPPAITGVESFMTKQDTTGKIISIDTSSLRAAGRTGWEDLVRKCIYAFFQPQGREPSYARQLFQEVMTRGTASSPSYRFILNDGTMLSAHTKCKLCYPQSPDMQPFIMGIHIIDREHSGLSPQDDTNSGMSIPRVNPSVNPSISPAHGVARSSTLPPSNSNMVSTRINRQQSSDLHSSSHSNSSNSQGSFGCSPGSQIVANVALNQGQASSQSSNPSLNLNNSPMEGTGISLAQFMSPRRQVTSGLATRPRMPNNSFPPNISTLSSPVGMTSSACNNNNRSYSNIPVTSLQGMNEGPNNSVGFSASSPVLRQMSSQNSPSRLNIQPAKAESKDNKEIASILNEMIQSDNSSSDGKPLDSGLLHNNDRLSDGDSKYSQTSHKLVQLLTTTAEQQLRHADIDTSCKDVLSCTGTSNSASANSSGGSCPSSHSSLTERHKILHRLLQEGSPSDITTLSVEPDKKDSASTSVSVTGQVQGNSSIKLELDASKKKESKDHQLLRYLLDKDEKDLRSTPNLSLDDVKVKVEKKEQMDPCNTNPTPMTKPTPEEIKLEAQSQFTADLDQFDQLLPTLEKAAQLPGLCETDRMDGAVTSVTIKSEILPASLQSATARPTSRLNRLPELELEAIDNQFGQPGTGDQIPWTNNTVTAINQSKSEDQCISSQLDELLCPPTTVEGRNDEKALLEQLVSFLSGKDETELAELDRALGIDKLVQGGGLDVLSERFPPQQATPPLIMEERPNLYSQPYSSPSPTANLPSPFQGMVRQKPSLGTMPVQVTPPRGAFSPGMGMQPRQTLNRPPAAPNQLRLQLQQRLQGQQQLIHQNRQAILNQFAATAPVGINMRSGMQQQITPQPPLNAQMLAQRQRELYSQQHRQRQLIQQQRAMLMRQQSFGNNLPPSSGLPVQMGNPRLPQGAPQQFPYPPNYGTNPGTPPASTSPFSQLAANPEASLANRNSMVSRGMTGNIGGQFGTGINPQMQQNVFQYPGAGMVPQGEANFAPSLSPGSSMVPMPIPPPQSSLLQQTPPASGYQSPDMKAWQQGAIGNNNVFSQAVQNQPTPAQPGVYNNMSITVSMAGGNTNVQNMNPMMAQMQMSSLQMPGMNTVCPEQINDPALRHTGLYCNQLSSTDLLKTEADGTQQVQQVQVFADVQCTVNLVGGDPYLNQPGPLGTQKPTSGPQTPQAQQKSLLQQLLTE
Beta-galactosidase, sequence (Q8VNN2 whole entry): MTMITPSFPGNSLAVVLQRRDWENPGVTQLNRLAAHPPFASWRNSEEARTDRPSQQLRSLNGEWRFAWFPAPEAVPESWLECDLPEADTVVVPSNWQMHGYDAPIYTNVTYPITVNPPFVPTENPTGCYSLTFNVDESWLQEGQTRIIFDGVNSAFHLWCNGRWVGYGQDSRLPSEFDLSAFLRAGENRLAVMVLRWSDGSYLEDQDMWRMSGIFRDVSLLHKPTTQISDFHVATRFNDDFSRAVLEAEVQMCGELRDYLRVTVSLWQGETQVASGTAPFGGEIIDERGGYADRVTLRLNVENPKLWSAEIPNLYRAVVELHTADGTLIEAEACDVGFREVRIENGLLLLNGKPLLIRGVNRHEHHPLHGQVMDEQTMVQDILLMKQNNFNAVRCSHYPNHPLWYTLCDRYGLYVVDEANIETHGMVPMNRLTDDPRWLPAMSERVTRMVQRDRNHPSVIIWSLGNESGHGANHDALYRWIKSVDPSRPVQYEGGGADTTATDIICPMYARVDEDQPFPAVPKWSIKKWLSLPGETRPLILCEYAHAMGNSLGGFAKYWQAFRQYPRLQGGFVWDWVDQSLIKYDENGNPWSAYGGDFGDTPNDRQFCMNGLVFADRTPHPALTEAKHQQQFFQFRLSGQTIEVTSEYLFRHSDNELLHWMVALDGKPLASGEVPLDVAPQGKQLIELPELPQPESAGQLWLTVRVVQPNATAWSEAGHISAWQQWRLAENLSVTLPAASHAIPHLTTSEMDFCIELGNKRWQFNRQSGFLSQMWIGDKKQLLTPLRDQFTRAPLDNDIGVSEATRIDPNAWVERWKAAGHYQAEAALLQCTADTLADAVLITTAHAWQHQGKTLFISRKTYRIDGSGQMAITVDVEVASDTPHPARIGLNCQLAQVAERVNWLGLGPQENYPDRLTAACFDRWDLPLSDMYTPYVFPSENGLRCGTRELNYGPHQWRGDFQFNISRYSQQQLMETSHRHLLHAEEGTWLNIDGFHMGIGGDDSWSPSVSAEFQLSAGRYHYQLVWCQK

As for `COc1ccc(-c2cc(C(F)F)n3ncc(C(=O)N4CCCc5ccccc54)c3n2)cc1`, the EC50 in [1], in [2] and in [3] was > 79.4 µM (not active) in each case.

For `CCOC(=O)c1ccccc1NC(=O)c1cn(-c2ccc(C)c(C)c2)c(=O)c2ccccc12`, the EC50 in [1], in [2] and in [3] was > 79.4 µM (not active) throughout.

For the compound `COc1ccc(NC(=O)CSc2nnc[nH]2)c([N+](=O)[O-])c1`, the IC50 at Leucine aminopeptidase is 17 µM (active).

As to `CCCCCCCOc1ccc(OC(=O)c2ccncc2)cc1`, in [4], the IC50 is > 80 µM (inactive).

`C/C(=N\NC(=S)NCCc1ccccc1)c1ccc(Cl)cc1Cl`: the EC50 was > 150 µM (inconclusive) on Streptokinase A, 21.2 µM (active) with Streptococcus and 4.66 µM (active) in [5]. In addition, the IC50 on Beta-galactosidase was > 66.6 µM (inactive).

As to `CC(=O)N1CCc2cc(Br)cc(S(=O)(=O)NCCCN(C)Cc3ccccc3)c21`, the 50% effective concentration (EC50) in test [6] is 0.149 µM (active).

Take `O=C(c1cc(COc2ccc(F)cc2Cl)on1)N1CCCC(OCc2cccnc2)C1` (stereo not given): the EC50 in test [1], in test [2] and in test [3] was > 79.4 µM (not active) in each case.

On to `CCOC(=O)c1c(NC(=O)CSc2nnc(C)c(=O)[nH]2)sc2c1CCCC2`, for which the IC50 on Leucine aminopeptidase is 9.34 µM (active); on Aminopeptidase N it was 62.1 µM (active).

Regarding `CCOC(=O)C1CCCN(S(=O)(=O)c2cc(Br)cc3c2N(C(=O)C2CC2)CC3)C1` (stereo not given), the EC50 in test [1], in test [2] and in test [3] was > 79.4 µM (not active) in each case.

In the case of `CCOc1ccc(NC(=O)CSc2nc(C)cc(C)n2)cc1`, the IC50 at Leucine aminopeptidase was 4.3 µM (active).

Turning to `CC1Cc2ccccc2N1C(=S)NC(=O)c1cccc(Br)c1` (stereo not given), the IC50 on Beta-galactosidase is > 66.6 µM (inactive).

Turning to `COC(=O)c1c(NC(=O)C2C3C=CC(CC3)C2C(=O)O)sc(C)c1C` (stereo not given), the IC50 at Leucine aminopeptidase is 19 µM (active).

Consider `CCOC(=O)C1(Cc2cccc(F)c2)CCN(Cc2cnc(C)s2)CC1`, for which, in [6], the EC50 was 0.944 µM (active).

For the compound `O=C(CNC(=O)C(c1ccccc1)c1ccccc1)N/N=C/c1cccnc1`, the IC50 in test [7] is 5.72 µM (not active).

As to `O=C(Nc1nccs1)c1ccc(NC(=O)C2CC=CCC2C(=O)O)cc1` (stereo not given), at Leucine aminopeptidase, the IC50 is 23.2 µM (active).

Take `Cc1cc(C)c(C(=O)CSc2nnc(-c3ccccc3Br)o2)cc1C`: the EC50 in [1] is recorded as 69.8 µM (not active); in [2] it was 32.6 µM (not active); in [3] it was 51.9 µM (not active).

As to `COc1ccc([C@H]2CC(=O)C=C(c3ccc(OC)cc3OC)C2)cc1`, the IC50 in test [4] is > 80 µM (inactive).

`Clc1cccc(OCCN2CCN(CCOc3cccc(Cl)c3)CC2)c1`: the CC50 in test [8] was > 20 µM (active); in test [9], 31.3 µM (active). Besides, the IC50 in the test “cells” was 23.9 µM (active).

Regarding `CCOC(=O)c1cnc(Nc2nc3ccccc3o2)nc1CSC(=S)N1CCCCC1`, the EC50 in the test with H4 was > 120 µM (not active); in [10], 7.71 µM (active); in test [11], > 60 µM (not active). Also, the CC50 in [8] is 9.21 µM (active); in [9], > 40 µM (active). Besides, the IC50 in the test “cells” was 2.4 µM (active).

For the origin of these results see ChEMBL document CHEMBL1201862, “PubChem BioAssay data set” (2004).
